SMILES strings stand for the structures. A value given as a limit tells only on which side of the number the result lay.

One series relates to Wnt pathway. Description: Cellular assay for Wnt pathway activity, LS174T-shl-fLuc clone 5 (LS174T-L5) luciferase reporter assay. It counts as cell-based. The note with it: Homo sapiens; LS174T TCF luciferase reporter cells, 24 hours incubation. The source says:
1. Cellular Assay for Wnt Pathway Activity LS174T-shl-fLuc Clone 5 (LS174T-L5) Reporter Assay Principle:
This assay is based on an in-vitro luciferase activity readout. The human colon cancer cell line, LS174T was transduced with a lentivirus encoding a short half-life luciferase (with a destabilised PEST sequence construct; construct F1756): 16×TCF/LEF transcription sites—short half life firefly luciferase on a basal pTA promoter—puromycin resistance gene on an EF-1-α promoter). This construct was made using the lentiviral base vector: pCDF1-MCS2-EF1-Puro from System Biosciences (cat. # CD110B-1). The luciferase has a T1/2 of about 60 minutes.
Stable luciferase-expressing clones were selected, using 1 μg/mL puromycin selection and the clones were bulked up.
Compounds that inhibit the Wnt pathway are predicted to inhibit the induction of luciferase transcription by TCF; this will result in reduced luciferase protein production and luciferase signal readout.
Compounds were tested for their Wnt pathway inhibitory activities using the described firefly luciferase reporter cell based assay. An LS174T luciferase reporter cell line was used which contained a T-Cell Factor (TCF) dependent gene promoter firefly luciferase construct.
Compounds, in concentrations from 30 μM to 1 nM, were incubated for 24 hours on the cells. Luciferase activities were determined using the Steady Glo Luciferase Assay System (Promega) and the TOPCOUNT microplate reader (Perkin Elmer). For analysis, the obtained data were normalized against the untreated vehicle control and fitted for determination of the IC50 values using the Excel Fit application of the Excel Software (Microsoft).
(In a reporter assay the amount or activity of a reporter protein is the signal.)

Series [1] is described as follows: CLint (intrinsic clearance) assay, liver microsomal incubation. It counts as in vitro ADME, human. Particulars: liver microsomes, pH 7.4; human hepatic microsomes, 0.5 mg/mL protein, class symbols. The protocol: Also shown is the human hepatic microsomal intrinsic clearance (CLint), whereby the following classification is used:
2. CLint (Intrinsic Clearance) Assay
A Tecan Genesis workstation (RWS ASY 150/8) was used to perform the microsomal incubations. Analysis was carried out using a Waters ACQUITY UPLC system coupled to an ABSciex API3000 mass spectrometer. Data analysis was performed using Assay Explorer (Symyx).
Column: Acquity UPLC BEH C18, 2.1×50 mm, 1.7 um (Waters)
Mobile phases: • A=0.1% formic acid in water • B=acetonitrile
Column temperature: 50° C.
0.1 M potassium phosphate buffer pH 7.4 containing 1 mM MgCl2
15 mM NADPH in phosphate buffer
5.0 mg protein/mL liver microsomes in phosphate buffer
Each experiment consists of 12 test and 2 reference compounds. The reference compounds are incubated as a cocktail.
Dilution of test compounds was done in 2 steps from a 10 mM DMSO stock solution. First 4 μL stock solution was added to 196 μL of 20% DMSO in potassium phosphate buffer pH 7.4. In a second step 10 μL of the first dilution were added to 1890 μL potassium phosphate buffer and 100 μL internal standard solution to a final concentration of […].
100 μL of the final compound dilution were aliquoted into a 96 deep well plate. 12.5 μL liver microsomes were added to each well (0.5 mg/mL final protein concentration) and the samples preincubated for 5 min at 37° C. and 800 rpm agitation.
After the preincubation, 250 μL cold acetonitrile were added to the 0 min samples to prevent a reaction. Following this, 12.5 μL NADPH solution were added to all wells to start the incubation, with the exception of the 0 min and 30 min controls without cofactor, where the NADPH was substituted for phosphate buffer.
The incubations were stopped after 5, 10, 20 and 30 min by adding 250 μL cold acetonitrile to the individual wells.
The quenched samples were then centrifuged at 4000 g for 1 h at 4° C. 100 μL of the supernatant were transferred into 96 well plates for analysis.
The metabolic stability of each compound was determined by measurement of the change in LC-MS/MS peak area over time. Assay Explorer software was used to automatically calculate the slope k of the decline. The intrinsic clearance (CLint) of each compound was then calculated according to the formula: CLint(μL/min/mg protein)=k1000/protein concentration.
On the technique in general: Liver microsomes are vesicles of endoplasmic reticulum, rich in cytochrome P450 enzymes.

As usually defined, the IC50 is the point on the concentration scale where inhibition reaches its midpoint. Lower therefore signals greater potency in that assay. A word on the microsomal CLint: it is a measure of how fast metabolising enzymes remove a compound, apart from limits set by blood flow. In the series with Wnt pathway, `CN1c2ccc(-c3cnc(N)c(Cl)c3N3CC[C@H](C#N)[C@@H](O)C3)cc2CS1(=O)=O` [Compound 65, (3R,4R)-2′-Amino-3′-chloro-3-hydroxy-5′-(1-methyl-2,2-dioxo-2,3-dihydro-1H-2I6-benzo[c]isothiazol-5-yl)-3,4,5,6-tetrahydro-2H-[1,4′] bipyridinyl-4-carbonitrile] gave an IC50 of 14 nM. The microsomal CLint at 0.8 μM in series [1] is 10 to 50 µL/min/mg.

`Cn1cc(-c2ccc(-c3cnc(N)c(C(F)(F)F)c3N3CCC4(CC3)CC(=O)NC4=O)cc2)cn1` [Compound 52, 8-{2-Amino-5-[4-(1-methyl-1H-pyrazol-4-yl)-phenyl]-3-trifluoromethyl-pyridin-4-yl}-2,8-diaza-spiro[4.5] decane-1,3-dione] displayed an IC50 in the series on Wnt pathway of 1.2 nM. In addition, the microsomal CLint at 0.8 μM in series [1] lay in the range of 10 to 50 µL/min/mg.

Regarding `Nc1ncc(-c2ccc3c(N)n[nH]c3c2)c(N2CCC3(CC2)NC(=O)NC3=O)c1Cl` [Compound 5, 8-[2-Amino-5-(3-amino-1H-indazol-6-yl)-3-chloro-pyridin-4-yl]-1,3,8-triaza-spiro[4.5] decane-2,4-dione], 1500 nM corresponded to half-maximal inhibition in the series with Wnt pathway (IC50). The intrinsic clearance (microsomal CLint) at 0.8 μM in series [1] is less than 10 µL/min/mg.

`Nc1ncc(-c2ccc(-c3cnn(CCO)c3)cc2)c(N2CCC3(CC2)NC(=O)NC3=O)c1Cl` [Compound 6, 8-(2-Amino-3-chloro-5-{4-[1-(2-hydroxy-ethyl)-1H-pyrazol-4-yl]-phenyl}-pyridin-4-yl)-1,3,8-triaza-spiro[4.5] decane-2,4-dione] gave an IC50 in the series on Wnt pathway of 390 nM. In series [1], the microsomal CLint at 0.8 μM lay in the range of 10 to 50 µL/min/mg.

`Nc1ncc(-c2ccccc2)c(N2CCC3(CCNC3=O)CC2)c1Cl` [Compound 1, 8-(2-Amino-3-chloro-5-phenyl-pyridin-4-yl)-2,8-diaza-spiro[4.5]decan-1-one]: the IC50 in the series on Wnt pathway was found to be 670 nM. The microsomal CLint at 0.8 μM in series [1] was 10 to 50 µL/min/mg.

In the series on Wnt pathway, `CCn1ncc2ccc(-c3cnc(N)c(Cl)c3N3CCC4(CCNC4=O)CC3)cc21` [Compound 71, 8-[2-Amino-3-chloro-5-(1-ethyl-1H-indazol-6-yl)-pyridin-4-yl]-2,8-diaza-spiro[4.5] decan-1-one] displayed an IC50 of 181 nM. For the same compound, the microsomal CLint at 0.8 μM in series [1] is 10 to 50 µL/min/mg.

Compound `Cn1ncc2cc(-c3cnc(N)c(F)c3N3CCC4(CCNC4=O)CC3)ccc21` [Compound 64, 8-[2-Amino-3-fluoro-5-(1-methyl-1H-indazol-5-yl)-pyridin-4-yl]-2,8-diaza-spiro[4.5] decan-1-one] gave an IC50 in the series with Wnt pathway of 644 nM. The intrinsic clearance (microsomal CLint) at 0.8 μM in series [1] lay within 10 to 50 µL/min/mg.

Consider `Cn1cc(-c2ccc(-c3cnc(N)c(C(F)(F)F)c3N3CCC4(CC3)CNC(=O)O4)cc2)cn1` [Compound 41, 8-{2-Amino-5-[4-(1-methyl-1H-pyrazol-4-yl)-phenyl]-3-trifluoromethyl-pyridin-4-yl}-1-oxa-3,8-diaza-spiro[4.5] decan-2-one], for which it took 75 nM to reach half-maximal inhibition in the series on Wnt pathway (IC50). Further, the intrinsic metabolic clearance (microsomal CLint) at 0.8 μM in series [1] was less than 10 µL/min/mg.

Turning to `CC(C)n1cc(-c2ccc(-c3cnc(N)c(C(F)(F)F)c3N3CCC4(CC3)CNC(=O)O4)cc2)cn1` [Compound 54, 8-{2-Amino-5-[4-(1-isopropyl-1H-pyrazol-4-yl)-phenyl]-3-trifluoro-methyl-pyridin-4-yl}-1-oxa-3,8-diaza-spiro[4.5] decan-2-one], the IC50 in the series with Wnt pathway came to 88 nM. Moreover, the intrinsic clearance (microsomal CLint) at 0.8 μM in series [1] is 10 to 50 µL/min/mg.

In the series on Wnt pathway, `Cn1ncc2cc(-c3cnc(N)c(C(F)(F)F)c3N3CCC4(CC3)CC(=O)NC4=O)ccc21` [Compound 49, 8-[2-Amino-5-(1-methyl-1H-indazol-5-yl)-3-trifluoromethyl-pyridin-4-yl]-2,8-diaza-spiro[4.5] decane-1,3-dione] yielded an IC50 of 4 nM. In series [1], the microsomal CLint at 0.8 μM lay in the range of 10 to 50 µL/min/mg.

Consider `CC(C)n1ncc2ccc(-c3cnc(N)c(Cl)c3N3CCC4(CCNC4=O)CC3)cc21` [Compound 73, 8-[2-Amino-3-chloro-5-(1-isopropyl-1H-indazol-6-yl)-pyridin-4-yl]-2,8-diaza-spiro[4.5] decan-1-one], for which, in the series with Wnt pathway, the IC50 turned out to be 54 nM. Besides, the microsomal CLint at 0.8 μM in series [1] fell in the range of 100 to 150 µL/min/mg.

In the case of `CN1c2ccc(-c3cnc(N)c(C(F)(F)F)c3N3CCC4(CCNC4=O)CC3)cc2CS1(=O)=O` [Compound 53, 8-[2-Amino-5-(1-methyl-2,2-dioxo-2,3-dihydro-1H-2I6-benzo[c]isothiazol-5-yl)-3-trifluoro-methyl-pyridin-4-yl]-2,8-diaza-spiro[4.5] decan-1-one], the IC50 with Wnt pathway came out at 8.29 nM. For the same compound, the microsomal CLint at 0.8 μM in series [1] is 50 to 100 µL/min/mg.

Regarding `Nc1ncc(-c2ccc3c(N)n[nH]c3c2)c(N2CCC3(CCNC3=O)CC2)c1C(F)(F)F` [Compound 44, 8-[2-Amino-5-(3-amino-1H-indazol-6-yl)-3-trifluoro-methyl-pyridin-4-yl]-2,8-diaza-spiro[4.5] decan-1-one], the IC50 in the series with Wnt pathway amounted to 270 nM. For the same compound, in series [1], the microsomal CLint at 0.8 μM fell in the range of 10 to 50 µL/min/mg.

In turn, `CC(C)n1cc(-c2ccc(-c3cnc(N)c(Cl)c3N3CCC4(CCNC4=O)CC3)cc2)cn1` [Compound 69, 8-{2-Amino-3-chloro-5-[4-(1-isopropyl-1H-pyrazol-4-yl)-phenyl]-pyridin-4-yl}-2,8-diaza-spiro[4.5] decan-1-one] gave an IC50 with Wnt pathway of 52 nM. Further, the intrinsic clearance (microsomal CLint) at 0.8 μM in series [1] lay in the range of 50 to 100 µL/min/mg.

In turn, `CN1CCN(c2ccc(-c3cnc(N)c(Cl)c3N3CCC(C#N)CC3)cc2)CC1` [Compound 30, 1-(2-Amino-3-chloro-5-(4-(4-methylpiperazin-1-yl)phenyl)pyridin-4-yl)piperidine-4-carbonitrile] gave a concentration for half-maximal inhibition (IC50) in the series on Wnt pathway of 12 nM. Moreover, in series [1], the microsomal CLint at 0.8 μM was 10 to 50 µL/min/mg.

For the compound `CN1c2ccc(-c3cnc(N)c(Cl)c3N3CC[C@H](C#N)[C@@H](O)C3)cc2CS1(=O)=O` (racemic) [Compound 57, Racemic trans-2′-amino-3′-chloro-3-hydroxy-5′-(1-methyl-2,2-dioxo-2,3-dihydro-1H-2l6-benzo[c]isothiazol-5-yl)-3,4,5,6-tetrahydro-2H-[1,4′]bipyridinyl-4-carbonitrile], the IC50 in the series with Wnt pathway came out at 28.6 nM. The microsomal CLint at 0.8 μM in series [1] lay within 10 to 50 µL/min/mg.

With `CN1c2ccc(-c3cnc(N)c(C(F)(F)F)c3N3CCC4(CC3)CNC(=O)O4)cc2CS1(=O)=O` [Compound 42, 8-[2-Amino-5-(1-methyl-2,2-dioxo-2,3-dihydro-1H-2I6-benzo[c]isothiazol-5-yl)-3-trifluoro-methyl-pyridin-4-yl]-1-oxa-3,8-diaza-spiro[4.5] decan-2-one], the IC50 in the series on Wnt pathway came out at 11 nM. Moreover, the microsomal CLint at 0.8 μM in series [1] is 10 to 50 µL/min/mg.

In the series on Wnt pathway, `CC(C)(O)Cn1cc(-c2ccc(-c3cnc(N)c(Cl)c3N3CCC4(CCNC4=O)CC3)cc2)cn1` [Compound 67, 8-(2-Amino-3-chloro-5-{4-[1-(2-hydroxy-2-methyl-propyl)-1H-pyrazol-4-yl]-phenyl}-pyridin-4-yl)-2,8-diaza-spiro[4.5] decan-1-one] had an IC50 of 49 nM. In addition, the microsomal CLint at 0.8 μM in series [1] lay within 10 to 50 µL/min/mg.

As for `Cn1ncc2cc(-c3cnc(N)c(Cl)c3N3CCC4(CC3)NC(=O)NC4=O)ccc21` [Compound 8, 8-[2-Amino-3-chloro-5-(1-methyl-1H-indazol-5-yl)-pyridin-4-yl]-1,3,8-triaza-spiro[4.5] decane-2,4-dione], the IC50 in the series on Wnt pathway came out at 29 nM. In series [1], the microsomal CLint at 0.8 μM was less than 10 µL/min/mg.

`CN1C(=O)Cc2ccc(-c3cnc(N)c(C(F)(F)F)c3N3CCC4(CCNC4=O)CC3)cc21` [Compound 50, 8-[2-Amino-5-(1-methyl-2-oxo-2,3-dihydro-1H-indol-6-yl)-3-trifluoromethyl-pyridin-4-yl]-2,8-diaza-spiro[4.5] decan-1-one] showed an IC50 in the series with Wnt pathway of 817 nM. In addition, the microsomal CLint at 0.8 μM in series [1] was 10 to 50 µL/min/mg.

The values are drawn from patent US9834541B2, “2-aminopyridine compounds” (Merck Patent GmbH, priority 2012, dated 2017).
